# Measured values: ChEMBL document CHEMBL1201862, “PubChem BioAssay data set” (2004)
# Calls of active or inactive are those of the source.
# Key:
# [1] = biological target: T1, Serine/threonine-protein phosphatase (Candida dubliniensis (strain CD36 / CBS 7987 / NCPF 3949 / NRRLY-17841) (Yeast), UniProt B9W6M3); test: calcineurin pathway inhibitors in yeast reporter, dose response, S. cerevisiae, CDRE-lacZ, luminescence, secondary (AID 2388); type: functional, cell-based;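 also: yeast reporter cells carrying a calcineurin-responsive lacZ construct stimulated with calcium chloride; luminescent beta-galactosidase reporter signal in whole cells rather than isolated phosphatase activity; potency for inhibition where a drop in reporter signal means calcineurin blockade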
# T1 sequence (B9W6M3 whole entry): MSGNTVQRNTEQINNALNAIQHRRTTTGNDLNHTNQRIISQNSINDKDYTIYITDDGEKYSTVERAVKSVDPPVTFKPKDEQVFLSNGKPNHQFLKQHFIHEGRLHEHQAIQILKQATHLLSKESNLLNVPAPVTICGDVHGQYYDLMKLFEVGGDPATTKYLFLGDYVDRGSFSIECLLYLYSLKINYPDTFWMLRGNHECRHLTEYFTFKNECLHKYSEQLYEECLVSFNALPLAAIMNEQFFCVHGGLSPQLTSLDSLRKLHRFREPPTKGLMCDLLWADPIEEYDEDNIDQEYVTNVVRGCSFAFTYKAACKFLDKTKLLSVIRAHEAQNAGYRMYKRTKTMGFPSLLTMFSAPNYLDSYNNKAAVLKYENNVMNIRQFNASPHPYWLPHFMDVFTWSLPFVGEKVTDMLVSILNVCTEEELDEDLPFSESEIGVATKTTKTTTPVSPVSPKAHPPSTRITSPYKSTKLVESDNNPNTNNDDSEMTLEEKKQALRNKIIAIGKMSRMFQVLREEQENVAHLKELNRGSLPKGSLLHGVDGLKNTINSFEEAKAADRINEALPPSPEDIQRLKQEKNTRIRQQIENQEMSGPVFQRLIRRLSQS
# [2] = Counterscreen for AddAB inhibitors: absorbance-based bacterial cell-based high throughput dose response assay for inhibitors of bacterial viability. [Related pubchem assays (depositor defined):AID435030, AID449728, AID449731, AID488942, AID488955, AID488956]; type: functional
# [3] = HepG2 cell cytotoxicity, dose response, cytotoxicity control for Shn3 inhibitor project, CellTiter-Glo, cherry-picked (AID 624134); type: functional, cell-based
# [4] = biological target: Dual specificity protein phosphatase 3 (Homo sapiens, UniProt P51452); test: VHR1 phosphatase inhibitors, biochemical (AID 1878)
# [5] = biological target: Tyrosyl-DNA phosphodiesterase 2 (Homo sapiens, UniProt O95551); test: human TDP2 enzyme inhibitors, dose response, biochemical, epi absorbance, IC50 (AID 743297)
# [6] = inhibitors of PGC1a acetylation in cells, dose response, cell-based, cherry-picked samples (AID 720514); type: functional;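 also: potency may reflect raised or lowered acetylation signal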
# [7] = biological target: T2, Apoptotic protease-activating factor 1 (Homo sapiens, UniProt O14727); type: functional
# T2 sequence (O14727 whole entry): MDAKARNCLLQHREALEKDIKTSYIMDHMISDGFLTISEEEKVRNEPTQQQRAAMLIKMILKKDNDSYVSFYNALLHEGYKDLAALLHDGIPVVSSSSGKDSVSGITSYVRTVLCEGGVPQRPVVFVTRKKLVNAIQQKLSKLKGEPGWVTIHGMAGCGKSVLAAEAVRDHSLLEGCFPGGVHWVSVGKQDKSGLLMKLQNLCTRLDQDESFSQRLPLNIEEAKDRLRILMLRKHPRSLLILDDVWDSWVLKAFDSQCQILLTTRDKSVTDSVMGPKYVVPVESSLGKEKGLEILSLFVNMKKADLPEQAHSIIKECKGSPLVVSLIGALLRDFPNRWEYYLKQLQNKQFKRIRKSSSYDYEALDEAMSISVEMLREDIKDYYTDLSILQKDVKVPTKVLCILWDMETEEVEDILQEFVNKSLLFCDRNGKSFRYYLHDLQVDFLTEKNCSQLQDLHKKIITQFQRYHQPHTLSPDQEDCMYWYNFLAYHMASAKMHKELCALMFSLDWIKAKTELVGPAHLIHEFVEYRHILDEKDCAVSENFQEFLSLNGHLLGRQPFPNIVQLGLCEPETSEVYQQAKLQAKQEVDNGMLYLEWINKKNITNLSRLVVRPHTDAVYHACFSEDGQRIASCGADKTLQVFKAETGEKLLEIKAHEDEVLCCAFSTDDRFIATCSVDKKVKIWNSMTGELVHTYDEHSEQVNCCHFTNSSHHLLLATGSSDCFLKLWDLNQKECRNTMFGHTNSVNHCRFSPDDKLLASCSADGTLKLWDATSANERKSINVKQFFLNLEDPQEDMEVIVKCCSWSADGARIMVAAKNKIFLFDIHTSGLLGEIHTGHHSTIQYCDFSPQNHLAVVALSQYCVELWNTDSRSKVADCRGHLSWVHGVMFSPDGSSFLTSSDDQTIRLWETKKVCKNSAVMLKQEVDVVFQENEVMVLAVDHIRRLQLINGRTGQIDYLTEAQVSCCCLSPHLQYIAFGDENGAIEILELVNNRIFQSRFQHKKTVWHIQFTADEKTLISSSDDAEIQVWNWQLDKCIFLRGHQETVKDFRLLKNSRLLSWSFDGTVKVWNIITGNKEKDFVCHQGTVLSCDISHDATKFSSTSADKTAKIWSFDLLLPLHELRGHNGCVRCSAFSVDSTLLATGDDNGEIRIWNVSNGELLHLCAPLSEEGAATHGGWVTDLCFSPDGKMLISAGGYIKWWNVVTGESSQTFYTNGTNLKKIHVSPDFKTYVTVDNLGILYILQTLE
# [8] = biological target: Dual specificity protein phosphatase 6 (Rattus norvegicus, UniProt Q64346); test: MKP-3 phosphatase inhibitors, primary screen, biochemical, rat enzyme, in vitro (AID 425)
# [9] = HEK293T cytotoxicity, dose response, cytotoxicity control for miR-122 modulator project, cell-based, inhibitor set, cherry-pick, set 2 (AID 720697); type: functional
# Cytochrome P450 2C9 = Cytochrome P450 2C9 (Homo sapiens, UniProt P11712)
# Cytochrome P450 2C19 = Cytochrome P450 2C19 (Homo sapiens, UniProt P33261); test: Cytochrome panel assay with activity outcomes. Panel member name: p450-cyp2c19 Compounds with AC50 equal or less than 10 uM are considered active; type: functional; settings: read-out: AC50
# [10] = off-target signal loss in HeLa-CEM21 co-culture – HeLa F-luc CTL cells, cherry-picked, counter-screen for HIV-1 Env fusion inhibitor project, dose response (AID 652040); type: functional, cell-based;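 also: potency for signal decrease marking cytotoxic or nonspecific inhibition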
# Cytochrome P450 2C9, sequence (P11712 whole entry): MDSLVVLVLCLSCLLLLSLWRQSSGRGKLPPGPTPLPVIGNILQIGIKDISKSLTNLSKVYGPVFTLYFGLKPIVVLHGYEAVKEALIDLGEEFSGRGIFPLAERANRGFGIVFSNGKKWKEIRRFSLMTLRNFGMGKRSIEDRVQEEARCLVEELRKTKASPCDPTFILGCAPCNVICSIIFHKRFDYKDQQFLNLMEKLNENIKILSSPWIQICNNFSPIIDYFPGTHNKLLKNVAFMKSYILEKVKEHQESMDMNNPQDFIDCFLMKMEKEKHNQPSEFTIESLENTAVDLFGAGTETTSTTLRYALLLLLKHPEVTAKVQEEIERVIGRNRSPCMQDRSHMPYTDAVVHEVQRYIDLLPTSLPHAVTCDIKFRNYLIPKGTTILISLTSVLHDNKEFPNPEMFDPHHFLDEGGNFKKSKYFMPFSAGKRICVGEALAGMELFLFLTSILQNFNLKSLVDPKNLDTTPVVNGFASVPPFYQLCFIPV
# Dual specificity protein phosphatase 6, sequence (Q64346 whole entry): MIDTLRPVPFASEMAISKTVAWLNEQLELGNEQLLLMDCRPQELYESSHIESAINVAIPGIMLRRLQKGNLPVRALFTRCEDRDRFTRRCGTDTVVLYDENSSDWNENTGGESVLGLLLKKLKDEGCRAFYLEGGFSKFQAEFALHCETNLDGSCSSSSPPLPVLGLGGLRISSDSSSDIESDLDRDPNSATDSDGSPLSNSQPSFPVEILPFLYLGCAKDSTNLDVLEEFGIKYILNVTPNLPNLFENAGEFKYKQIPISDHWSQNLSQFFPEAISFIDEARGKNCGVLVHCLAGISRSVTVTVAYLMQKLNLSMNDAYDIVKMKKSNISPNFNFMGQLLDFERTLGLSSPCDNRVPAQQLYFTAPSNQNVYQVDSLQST
# Tyrosyl-DNA phosphodiesterase 2, sequence (O95551 whole entry): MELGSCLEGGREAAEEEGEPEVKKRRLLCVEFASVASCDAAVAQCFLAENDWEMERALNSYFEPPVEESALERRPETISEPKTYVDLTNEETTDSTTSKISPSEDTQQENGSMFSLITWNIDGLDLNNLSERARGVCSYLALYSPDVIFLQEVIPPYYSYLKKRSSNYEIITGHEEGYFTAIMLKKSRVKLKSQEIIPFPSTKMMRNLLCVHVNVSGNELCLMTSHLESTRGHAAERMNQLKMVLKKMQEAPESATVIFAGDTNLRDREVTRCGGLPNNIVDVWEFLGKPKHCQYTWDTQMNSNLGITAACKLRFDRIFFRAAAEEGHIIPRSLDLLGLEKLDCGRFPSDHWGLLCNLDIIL
# Cytochrome P450 2C19, sequence (P33261 whole entry, the tested form may be a part): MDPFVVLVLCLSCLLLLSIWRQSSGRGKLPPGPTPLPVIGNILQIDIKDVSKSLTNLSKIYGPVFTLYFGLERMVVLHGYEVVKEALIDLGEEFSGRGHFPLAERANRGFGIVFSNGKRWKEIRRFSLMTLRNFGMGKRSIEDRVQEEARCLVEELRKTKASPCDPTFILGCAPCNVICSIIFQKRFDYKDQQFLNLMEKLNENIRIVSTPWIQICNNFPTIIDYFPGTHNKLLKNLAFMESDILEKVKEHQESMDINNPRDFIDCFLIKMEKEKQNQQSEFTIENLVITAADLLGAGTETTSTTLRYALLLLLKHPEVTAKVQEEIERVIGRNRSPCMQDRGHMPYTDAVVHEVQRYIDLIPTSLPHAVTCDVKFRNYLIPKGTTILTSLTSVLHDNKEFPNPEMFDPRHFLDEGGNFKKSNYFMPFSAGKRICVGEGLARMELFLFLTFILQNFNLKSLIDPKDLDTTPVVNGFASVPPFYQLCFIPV
# Dual specificity protein phosphatase 3, sequence (P51452 whole entry): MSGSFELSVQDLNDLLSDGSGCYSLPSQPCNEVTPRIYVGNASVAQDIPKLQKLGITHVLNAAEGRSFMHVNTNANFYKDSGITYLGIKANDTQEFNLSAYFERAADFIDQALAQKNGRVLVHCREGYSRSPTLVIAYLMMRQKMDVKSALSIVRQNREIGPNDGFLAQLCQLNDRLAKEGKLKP
compound,measurement,setting,value
CCC(=O)NC(c1ccc(OC)cc1)c1cc(Cl)c2cccnc2c1O (configuration not stated),EC50,[1],> 180 µM (inactive)
same,IC50,[2],> 119 µM (inactive)
Cn1nc(-c2ccccn2)nc2c(=O)n(C)c(=O)nc1-2,AC50,[3],5.81 µM (active)
same,IC50,[4],10.2 µM (active)
same,IC50,[5],0.21 µM (active)
same,AC50,[6],3.15 µM (active)
same,IC50,[7],0.079 µM (active)
same,IC50,[8],< 1.23 µM (not active)
CCCCCCCCCCn1c2c(c(=N)c3c1CCC3)CCC2,AC50,[9],1.8 µM (active)
same,AC50,Cytochrome P450 2C9,20 µM (inconclusive)
same,AC50,Cytochrome P450 2C19,28.2 µM (inconclusive)
same,AC50,[10],0.424 µM (active)
